Assay results as given in patent EP0148096A1, “Diversely substituted 1-arylamino-3-amino-2-propanols, process for their preparation and their therapeutical application” (CORTIAL S.A., priority 1983, dated 1985).
Where two headings read alike, the source gives them in different places.

Legend:
[1] = system: oreillette gauche de cobaye; test: calcium-antagonist activity in vitro, electrically stimulated guinea pig left atrium in low-calcium Tyrode; type: cell-based; settings: 100 Microg/ml; 150 battements/mn, Tyrode pauvre en calcium (0,6mM), addition de 0,6 mM de calcium
Method: L'activité anticalcique a été déterminée in vitro sur oreillette gauche de cobaye stimulée électriquement à 150 battements/mn dans une solution de Tyrode pauvre en calcium (0,6mM).

souris = test: acute toxicity, intraperitoneal administration, solution in Tween; type: in vivo; settings: voie intrapéritonéale, 200 mg/kg, solution dans le Tween
[2] = acute toxicity, oral administration, solution in Tween; settings: mouse, in vivo, souris, voie orale; for mortality: solution dans le Tween, read-out: mortalité
Method: (§1) La toxicité a été déterminée chez la souris. En solution dans le Tween et après administration par voie orale le COR37 05C entraine 0 % de mortalité à 500 mg/kg, 40 % à 750 et 40 % à 1000; le COR37 06C entraine 0 % de mortalité à 100 mg/kg, 10 % à 200, 10 % à 250, 90 % à 375, 100 % à 500 (DL50 = 294 mg/kg (261-332); les COR37 09C, COR37 49C et COR37 50C entrainent 0 % de mortalité à 300 mg/kg. En solution dans le Tween et après administration par voie intrapéritonéale le COR37 05C entraine 0 % de

[3] = system: souris soumise à une anesthésie chloroformique profonde; test: antiarrhythmic activity, mouse under deep chloroform anaesthesia; type: in vivo; settings: ip, read-out: dose active (activité antiarythmique)
Method: L'activité antiarythmique a été déterminée sur plusieurs modèles expérimentaux. Dans le modèle de la souris soumise à une anesthésie chloroformique profonde le COR37 05C et le COR37 06C présentent après administration intrapéritonéale une activité antiarythmique dès la dose de 25 mg/kg; le COR37 50C est actif sur ce même modèle à 100 mg/kg. Le propranolol est actif dans les mêmes conditions à la dose de 40 mg/kg et la quinidine à la dose de 100 mg/kg.

PRP de lapin = test: platelet aggregation in vitro induced by ADP in rabbit PRP; type: cell-based; settings: Oryctolagus cuniculus, 100 microg/ml, d'ADP, read-out: activité (agrégation plaquettaire induite par ADP)
Method: (§2) L'activité antiagrégante plaquettaire a été déterminée in vitro. Quand l'agrégation est induite par 0,05 ml d'une préparation standardisée de collagène bovin dans un plasma riche en plaquettes (PRP) de lapin, le COR37 06C entraine 100 % d'inhibition à 1 microg/ml alors que l'aspirine dans les mêmes conditions est active à 10 microg/ml et l'indométacine à 0,5 microg/ml. Dans le modèle de l'agrégation plaquettaire induite par […] d'ADP dans un PRP de lapin, à 100 microg/ml, le COR37 09C entraine 79 % d'activité, le COR37 50C entraine 80 % d'activité et l'adénosine 64 %.

[4] = system: oreillette isolée de cobaye stimulée électriquement; test: antiarrhythmic activity in vitro, electrically stimulated isolated guinea pig atrium; type: cell-based; settings: read-out: Ci30
Source text: In vitro dans le modèle de l'oreillette isolée de cobaye stimulée électriquement le COR37 05C et le COR37 06C sont actifs avec des Ci30 de respectivement 6,22 (4,37-8,86) 10^-6 M/1 et 7,26.10^-6 (4,68.10^-6-1,12.10^-5) M/1 contre 10^-5 M/1 pour la procaïne, 4.10^-6 M/1 pour la quinidine et 4,5.10^-6 M/l pour le propranolol.

[5] = acute toxicity, intravenous administration; settings: mouse, in vivo, souris, voie intraveineuse, limits (53,8 - 59,5), read-out: DL50 (the source's name)
Method: as §1
Par voie intraveineuse le COR37 05C présente une DL50 de 56,6 mg/kg (53,8 - 59,5).

[6] = acute toxicity, intraperitoneal administration, solution in Tween; type: in vivo; settings: mouse, in vivo, ip, souris, voie intrapéritonéale, solution dans le Tween, read-out: mortalité
[7] = system: arythmies induites par l'aconitine; test: aconitine-induced arrhythmias in the rat; type: in vivo; settings: for pourcentage d'animaux ne présentant pas de fibrilloflutters: voie orale
Method: Ces produits ont été testés dans le modèle des arythmies induites par l'aconitine chez le rat. Les résultats sont exprimés par le pourcentage d'augmentation de la quantité d'aconitine provoquant l'apparition d'extrasystoles (E), de fibrilloflutters (F), de tachycardies (T) et de morts (M). Administrés par voie intraveineuse 1 mn avant la perfusion d'aconitine, le COR37 05C entraine à 10 mg/kg 78 % (E), 87 % (T) et 83 % (M) d'activité et le COR37 06C à 5 mg/kg entraine 45 % (E), 39 % (T) et 79 % (M) d'activité. Administrés par voie orale 45 mn avant la perfusion d'aconitine à 100 mg/kg, le COR37 05C entraine 83 % (E), 99 % (T), 43 % (F) et 107 % (M) d'activité et le COR37 06C 25 % (E), 32 % (T), 29 % (F) et 105 % (M) d'activité. De plus le pourcentage d'animaux ne présentant pas de fibrilloflutters après administration de 100 mg/kg de COR37 05C et COR37 )6C par voie orale est respectivement de 70 et 60 %.

[8] = system: souris rendue hypercholestérolémique; test: hypolipidaemic activity, hypercholesterolaemic mouse (cholesterol and cholic acid diet, 7 days); type: in vivo; settings: voie orale le 6e et le 7e jour, 400 mg/kg
Method: L'activité hypolipidémiante a été mise en évidence chez la souris rendue hypercholestérolémique par un régime riche en cholestérol et acide cholique pendant 7 jours. Ainsi l'administration par voie orale du COR37 49C le 6e et le 7e jour, entraine une diminution du cholestérol sérique de 22 % à la dose de 400 mg/kg.

[9] = system: rat en surcharge hydrique; test: diuretic activity, water-loaded rat; type: in vivo; settings: dose orale de 20 mg/kg, fold factor
Method: L'activité diurétique a été déterminée chez le rat. Ainsi le COR37 49C administré au rat en surcharge hydrique à la dose orale de 20 mg/kg multiplie par 2,2 l'excrétion urinaire de sodium.

H2 = target: T1, H2 (Cavia porcellus, UniProt P47747); test: anti-H2 antihistaminic activity in vitro, unstimulated guinea pig right atrium; type: cell-based; settings: 25 microg/ml; 5 microg/ml d'histamine, oreillette droite de cobaye non stimulée; read-out: inhibition de l'effet chronotrope induit par l'histamine
T1 construct: sur l'oreillette droite de cobaye non stimulée; from tissue; host or cells: guinea pig right atrium, unstimulated
T1 sequence (P47747 whole entry): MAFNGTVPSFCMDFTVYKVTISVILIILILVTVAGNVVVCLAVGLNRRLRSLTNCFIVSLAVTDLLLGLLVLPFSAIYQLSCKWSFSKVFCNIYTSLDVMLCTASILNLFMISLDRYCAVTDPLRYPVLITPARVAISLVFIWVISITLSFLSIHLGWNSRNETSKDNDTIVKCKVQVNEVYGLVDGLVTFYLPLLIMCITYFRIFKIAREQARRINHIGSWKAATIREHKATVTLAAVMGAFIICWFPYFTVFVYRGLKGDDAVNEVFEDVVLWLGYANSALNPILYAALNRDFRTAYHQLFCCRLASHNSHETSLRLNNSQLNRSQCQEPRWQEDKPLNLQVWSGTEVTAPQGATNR
Source text: L'activité antihistaminique antiH2 a été mise en évidence in vitro. A la concentration de 25 microg/ml le COR37 49C inhibe à 50 % l'effet chronotrope induit par 5 microg/ml d'histamine sur l'oreillette droite de cobaye non stimulée.

Hl = target: T2, Hl (Cavia porcellus, UniProt P31389); test: anti-H1 antihistaminic activity in vitro, guinea pig ileum; type: cell-based; settings: 25 microg/ml; iléon de cobaye; read-out: inhibition des contractions induites par l'histamine
T2 construct: in vitro sur iléon de cobaye; from tissue; host or cells: guinea pig ileum
T2 sequence (P31389 whole entry): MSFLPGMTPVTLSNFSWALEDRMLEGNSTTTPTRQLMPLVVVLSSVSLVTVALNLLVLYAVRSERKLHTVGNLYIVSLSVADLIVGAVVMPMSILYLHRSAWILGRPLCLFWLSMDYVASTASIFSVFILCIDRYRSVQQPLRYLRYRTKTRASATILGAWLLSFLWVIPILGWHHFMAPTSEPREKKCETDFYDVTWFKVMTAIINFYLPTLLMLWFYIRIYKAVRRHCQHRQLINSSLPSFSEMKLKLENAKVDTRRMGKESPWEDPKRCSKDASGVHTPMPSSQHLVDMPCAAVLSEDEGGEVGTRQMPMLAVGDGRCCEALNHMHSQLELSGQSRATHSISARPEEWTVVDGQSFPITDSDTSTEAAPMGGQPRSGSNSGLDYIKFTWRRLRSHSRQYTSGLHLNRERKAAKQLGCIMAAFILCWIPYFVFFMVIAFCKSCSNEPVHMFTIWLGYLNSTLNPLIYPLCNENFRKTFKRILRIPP
Source text: L'activité antihistaminique antiHl a été mise en évidence in vitro sur iléon de cobaye. Le COR37 49C employé à la concentration de 25 microg/ml inhibe à 80 % les contractions induites par l'histamine.

cornée de cobaye = test: local anaesthetic activity, guinea pig cornea with tactile stimulus; type: in vivo; settings: concentration de 0,5 %
Source text: L'activité anesthésique locale a été déterminée dans le test de la cornée de cobaye soumise à un stimulus tactile. Le COR37 06C employé à la concentration de 0,5 % est actif pendant 30 mn.

[10] = system: plasma riche en plaquettes (PRP) de lapin; test: platelet aggregation in vitro induced by bovine collagen in rabbit PRP; type: cell-based; settings: 1 microg/ml, 0,05 ml de collagène bovin, read-out: inhibition de l'agrégation plaquettaire
Method: as §2

[11] = souris, anesthésie chloroformique profonde, administration intrapéritonéale
[12] = oreillette isolée de cobaye stimulée électriquement, in vitro
[13] = voie intraveineuse 1 mn avant la perfusion d'aconitine, 10 mg/kg
[14] = voie orale 45 mn avant la perfusion d'aconitine, 100 mg/kg
[15] = voie intraveineuse 1 mn avant la perfusion d'aconitine, 5 mg/kg

Cc1cccc(C(C)C)c1NCC(O)CN(C)C (stereo not drawn) [COR37 50C, Dichlorhydrate de l' (isopropyl-2 méthyl-6 anilino)-1 diméthylamino-3 propanol-2]
activité anticalcique [1]: inhibent l'augmentation de la force contractile | mortalité (souris): aucune mortalité | mortality ([2]; 300 mg/kg): 0% | minimal effective dose [3, 11]: 100 mg/kg | inhibition at 100 µg/mL (PRP de lapin): 80%

C=C[C@H]1C[N@@]2CC[C@H]1C[C@@H]2[C@@H](O)c1ccnc2ccc(OC)cc12 [quinidine, reference compound]
IC30 [4]: 4 µM | minimal effective dose [3]: 100 mg/kg

Nc1ncnc2c1ncn2[C@@H]1O[C@H](CO)[C@@H](O)[C@H]1O [adénosine, reference compound]
inhibition at 100 µg/mL (PRP de lapin): 64%

CC(C)c1ccccc1NCC(O)CNC(C)(C)C (stereo not drawn) [COR37 05C, Dichlorhydrate de l'(isopropyl-2 anilino)-1 tertiobutylamino-3 propanol-2]
LD50 [5]: 56.6 mg/kg | mortality ([6]; 200 mg/kg): 0% | IC30 [4, 12]: 6.22 µM | mortality ([2]; 500 mg/kg): 0% | mortality ([2]; 750 mg/kg): 40% | mortality ([2]; 1000 mg/kg): 40% | minimal effective dose [3, 11]: 25 mg/kg | pourcentage d'augmentation de la quantité d'aconitine provoquant l'apparition d'extrasystoles (E) [7, 13]: 78% | pourcentage d'augmentation de la quantité d'aconitine provoquant l'apparition de morts (M) [7, 13]: 83% | pourcentage d'augmentation de la quantité d'aconitine provoquant l'apparition de tachycardies (T) [7, 13]: 87% | pourcentage d'augmentation de la quantité d'aconitine provoquant l'apparition d'extrasystoles (E) [7, 14]: 83% | pourcentage d'augmentation de la quantité d'aconitine provoquant l'apparition de fibrilloflutters (F) [7, 14]: 43% | pourcentage d'augmentation de la quantité d'aconitine provoquant l'apparition de morts (M) [7, 14]: 107% | pourcentage d'augmentation de la quantité d'aconitine provoquant l'apparition de tachycardies (T) [7, 14]: 99% | pourcentage d'animaux ne présentant pas de fibrilloflutters ([7]; 100 mg/kg): 70%

Cc1ccc(NCC(O)CNC(C)(C)C)cc1 (stereo not drawn) [COR37 09C, Dichlorhydrate du (méthyl-4 anilino)-1 tertiobutylamino-3 propanol-2]
mortality ([6]; 50 mg/kg): 0% | mortality ([6]; 100 mg/kg): 100% | mortality ([2]; 300 mg/kg): 0% | inhibition at 100 µg/mL (PRP de lapin): 79%

CCN(CC)CCOC(=O)c1ccc(N)cc1 [procaïne]
IC30 [4, 12]: 10 µM

CC(C)c1ccccc1NCC(O)CN(C)C (stereo not drawn) [COR37 49C, Dichlorhydrate de l'(isopropyl-2 anilino)-l diméthylamino-3 propanol-2]
activité anticalcique [1]: inhibent l'augmentation de la force contractile | diminution du cholestérol sérique [8]: 22% | multiplication de l'excrétion urinaire de sodium [9]: 2,2 | mortalité (souris): aucune mortalité | mortality ([2]; 300 mg/kg): 0% | inhibition at 25 µg/mL (H2): 50% | inhibition at 25 µg/mL (Hl): 80%

CC(C)NCC(O)COc1cccc2ccccc12 (stereo not drawn) [propranolol, reference compound]
IC30 [4]: 4.5 µM | minimal effective dose [3]: 40 mg/kg

Cc1cccc(C(C)C)c1NCC(O)CNC(C)(C)C (stereo not drawn) [COR37 06C, Dichlorhydrate de l'(isopropyl-2 méthyl-6 anilino)-1 tertiobutylamino-3 propanol-2]
durée d'activité anesthésique locale (cornée de cobaye): 30 mn | inhibition at 1 µg/mL [10]: 100% | mortality ([6]; 100 mg/kg): 0% | mortality ([6]; 200 mg/kg): 100% | IC30 [4, 12]: 7.26 µM | mortality ([2]; 100 mg/kg): 0% | mortality ([2]; 200 mg/kg): 10% | mortality ([2]; 250 mg/kg): 10% | mortality ([2]; 375 mg/kg): 90% | mortality ([2]; 500 mg/kg): 100% | LD50 ([2]; limits (261-332), read-out: DL50 (the source's name)): 294 mg/kg | minimal effective dose [3, 11]: 25 mg/kg | pourcentage d'augmentation de la quantité d'aconitine provoquant l'apparition d'extrasystoles (E) [7, 15]: 45% | pourcentage d'augmentation de la quantité d'aconitine provoquant l'apparition de morts (M) [7, 15]: 79% | pourcentage d'augmentation de la quantité d'aconitine provoquant l'apparition de tachycardies (T) [7, 15]: 39% | pourcentage d'augmentation de la quantité d'aconitine provoquant l'apparition d'extrasystoles (E) [7, 14]: 25% | pourcentage d'augmentation de la quantité d'aconitine provoquant l'apparition de fibrilloflutters (F) [7, 14]: 29% | pourcentage d'augmentation de la quantité d'aconitine provoquant l'apparition de morts (M) [7, 14]: 105% | pourcentage d'augmentation de la quantité d'aconitine provoquant l'apparition de tachycardies (T) [7, 14]: 32% | pourcentage d'animaux ne présentant pas de fibrilloflutters ([7]; 100 mg/kg): 60%
